Experiment: gradient 5% acetonitrile 3 min, to 50% in 2 min, to 85% in 15 min, held 3 min, 100 µL/min
Settings: column: Zorbax Extend-C18 2.1 x 50 mm; eluents: water / acetonitrile, 0.1% formic acid
Procedure, shortened: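 Data were gathered over 3 months by HPLC coupled to a quadrupole time-of-flight mass spectrometer, operated in positive and negative ionization mode. Mixtures of ~100 pure standards ran on a Zorbax Extend-C18 column (2.1 × 50 mm, 1.8 μm) at 100 μL/min, with water and acetonitrile each containing 0.1% formic acid and dead and dwell volumes of 40 μL and 900 μL. Retention time was read from adduct peaks picked by computer and checked manually.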

Row | Structure (SMILES) | RP-LC retention time
1 | CN(C)c1ccc(-c2nc(-c3cn(Cc4ccc(F)cc4)nn3)no2)cc1 | 1010 s
2 | Cc1ccc(C)c(NS(=O)(=O)c2cc3n(c2)CCN(C(C)C)C3=O)c1 | 794 s
3 | COC(=O)c1c(-c2ccccc2)noc1NCc1ccc(C)o1 | 989 s
4 | COc1ccc(N2CC(c3nc(-c4ccc(C(F)(F)F)cc4)no3)CC2=O)c(OC)c1 (configuration not stated) | 1030 s
5 | CCN(CC)S(=O)(=O)c1ccc2c(c1)CC(C(=O)NCCN1CCCC1)N2C(C)=O (configuration not stated) | 613 s
6 | Cc1cc(C)c(-c2nnc(NC(=O)c3ccccc3Br)s2)c(C)c1 | 988 s
7 | c1cc(-c2noc(-c3ccoc3)n2)cc(N2CCCC2)n1 | 640 s
8 | O=c1c2ccccc2c(-c2nc(-c3ccncc3)no2)cn1-c1cccc(F)c1 | 1050 s
9 | COc1ccc(C(C)NC(=O)C2CCCN(c3cnc4nccnc4c3)C2)cc1OC (configuration not stated) | 663 s
10 | O=C(NCc1cccnc1)C1CCCN(S(=O)(=O)c2cc(-c3noc(C4CCC4)n3)cs2)C1 (configuration not stated) | 825 s
11 | Clc1ccccc1-c1nc(-c2cccc(-c3ccn[nH]3)c2)no1 | 1040 s
12 | O=C(O)CCCC(=O)N1C[C@H]2C[C@@H](C1)c1cccc(=O)n1C2 | 564 s
13 | Cc1cc(C)n2c(Nc3ccc4c(c3)OCCO4)c(-c3cccc(Br)c3)nc2n1 | 759 s
14 | CCCCN1C(=O)c2ccccc2C(C(=O)NCCC(=O)OC)C12CCCCC2 (configuration not stated) | 868 s
15 | Cc1nc(C(C)C)nc2c1CCC(=O)N2Cc1cccnc1 | 519 s
16 | Cc1cc2n(n1)CCCN2C(=O)CCC(=O)N1CCN(c2cc(Cl)ccc2C)CC1 | 852 s
17 | CSc1cccc(NC(=O)NC2CCN(c3cc(C)cc(C)c3)C2=O)c1 (configuration not stated) | 929 s
18 | Cc1nc(-c2cccc(F)c2)sc1C(=O)NC(C)C | 936 s
19 | CC(C)CN1CCN(S(=O)(=O)c2ccc(-c3nnc(C4CCCC4)o3)o2)CC1 | 692 s
20 | CCCCn1nnc(NCc2ccc(-c3cccc(Cl)c3)o2)n1 | 1150 s
21 | C=CCN1C(=O)COc2ccc(-c3csc(NC(=O)CCCC)n3)cc21 | 953 s
22 | COCCC(=O)N1CCc2c(c(-c3nc(C4CC4)no3)nn2C)C1 | 670 s
23 | COc1ccc(-n2ccc(=O)c(-c3nc(-c4ccccc4)no3)n2)cc1 | 856 s

Row | Structure (SMILES) | RP-LC retention time
24 | N#Cc1cccc(C(=O)Nc2ccc3cn[nH]c3c2)c1 | 659 s
25 | COCC(=O)Nc1cnc(-c2ccc(C(F)(F)F)cc2)nc1 | 922 s
26 | COc1cccc(NC(=O)Nc2nccn(-c3ccc(F)cc3)c2=O)c1 | 898 s
27 | COC(=O)c1c(C)[nH]c(C(=O)N2CCCC(C(=O)NC3CCCCCC3)C2)c1C (configuration not stated) | 794 s
28 | Cc1ccccc1N(C)C(=O)C1CCCN(c2ncnc3c2nc2n3CCCCC2)C1 (configuration not stated) | 870 s
29 | Cc1nnc(CNC(=O)CCn2nnc3ccccc3c2=O)o1 | 566 s
30 | Cc1ccc(Oc2cccc(C(=O)NCCNc3cc(N4CCCC4)nc(C)n3)c2)nn1 | 562 s
31 | O=C(Cc1csc(-c2ccccc2)n1)Nc1nc(-c2ccc(Cl)cc2)cs1 | 1210 s
32 | COc1ccc(OC)c(NS(=O)(=O)c2cccs2)c1 | 777 s
33 | COc1ccc(NC(=O)CN2CCc3[nH]c4c(C)c(C)ccc4c(=O)c3C2)c(OC)c1 | 626 s
34 | CCN1C(=O)COc2ccc(-c3csc(NC(=O)c4cccc(C)c4)n3)cc21 | 1050 s
35 | Cc1cc(CC(=O)N2CC(F)(F)C[C@H]2c2nc(C)no2)on1 | 732 s
36 | Cc1ccc(NC(=O)Nc2cnn(-c3ncncc3N3CCOCC3)c2)cc1Cl | 695 s
37 | COc1ccc(-c2nnc(COc3cccc(NC(=O)c4cncc(Br)c4)c3)o2)cc1 | 914 s
38 | CCOC(=O)C1=C(CN(CC)Cc2ccccc2)NC(=O)NC1c1ccc(F)cc1 (configuration not stated) | 696 s
39 | Cc1ccc(CN2CCC(C(=O)N3CCCCCCNC(=O)CC3)CC2)s1 | 595 s
40 | COc1ccccc1-c1noc(C2CCCN2C(=O)NC(C)C)n1 (configuration not stated) | 753 s
41 | Cc1noc(-c2ccc(OC3CN(C(=O)c4ccco4)C3)cc2)n1 | 789 s
42 | COc1ccc(-c2ncc3c(n2)CCN(S(=O)(=O)c2ccc(Cl)s2)C3)cc1 | 1140 s
43 | CCOC(=O)C1CCCN(C(=O)Cc2c(C(=O)O)c(C)cn2CC)C1 (configuration not stated) | 727 s
44 | Cc1cc(-n2nc(C)cc2C)n2nc(-c3ccc(Cl)cc3)c(C)c2n1 | 1170 s
45 | CC(C)C(=O)N1CCC2(CC1)NCc1ccccc1-n1ccnc12 | 574 s

The remaining lines, values ahead:

Row | RP-LC retention time | Structure (SMILES)
46 | 637 s | CN1CCC2(CC1)CN(C(=O)Nc1ccccc1)Cc1ccccc1O2
47 | 602 s | COc1ccc(N2CCN(C(=O)C3CCN(c4cncnc4N(C)C)CC3)CC2)cc1
48 | 832 s | CCc1csc(-c2ccc(N3CCN(C(=O)c4ccc(Cl)nc4)CC3)nc2)n1
49 | 627 s | Fc1ccccc1-c1nc(-c2ccc3c(c2)ncn3CCN2CCOCC2)no1
50 | 627 s | CCCc1cc(N2CCN(C(=O)Cc3ccsc3)CC2)nc2nnc(C)n12
51 | 644 s | CCN1CCN(C(=O)CN2C(=O)C3CCCCN3c3ccc(S(=O)(=O)N4CCCC4)cc32)CC1 (configuration not stated)
52 | 649 s | Cc1cc(S(=O)(=O)N2CCC(C(N)=O)CC2)ccc1F
53 | 713 s | Nc1cc(C2CCN(C(=O)c3cc4ccccc4[nH]3)CC2)no1
54 | 566 s | Cn1cc(C(=O)N2CCN(c3ccccn3)CC2)c2cccnc21
55 | 616 s | O=C(c1ccc(CS(=O)(=O)c2ccc(Br)cc2)o1)N1CCN(c2ccccn2)CC1
56 | 624 s | O=C(O)c1cc(-c2c[nH]c3ccccc23)nc2ccccc12
57 | 866 s | O=C(CN1CCN(Cc2ccc(F)cc2)C1=O)NCc1ccccc1C(F)(F)F
58 | 730 s | O=C(CCn1cnc2cc(-c3noc(COc4ccccc4)n3)ccc21)N1CCCC1
59 | 1100 s | Cc1cc(C)cc(NC(=O)Cn2nc(N3CCC(C)CC3)c3ccccc3c2=O)c1
60 | 1280 s | Cc1cccc(Sc2nccnc2N2CCCC(C(=O)N3CCN(c4ccccc4F)CC3)C2)c1 (configuration not stated)
61 | 821 s | C[C@H]1CN(C(=O)c2ccc3ccccc3n2)C[C@@H]1c1nc(-c2cccnc2)no1
62 | 972 s | COc1ccc(C2(C(=O)N3CC(c4nc(CCOCc5ccccc5)no4)C3)CC2)cc1
63 | 767 s | Cc1ccc(NC(=O)N2CCCC2c2nncn2-c2ccccc2)cc1C (configuration not stated)
64 | 718 s | Cc1ccc(NC(=O)CN2CCC(c3nc(-c4cccs4)no3)CC2)c(C)c1
65 | 744 s | NC(=O)C1CCN(C(=O)Cn2c(-c3cccs3)cc3ccccc32)CC1
66 | 1040 s | O=C(N1CCCC1c1noc(COCc2ccccc2)n1)C1(c2ccccc2)CC1 (configuration not stated)
67 | 795 s | Cc1ccc(NC(=O)CSc2nc(N3CCCCC3)nc3ccccc23)cc1C
